Source: paper PMC10051393, “Spectroscopic and Theoretical Analysis of the Interaction between Plasma Proteins and Phthalimide Analogs with Potential Medical Application” (Life, 2023)

Assays:
[1] = tested on: T1, α1-acid glycoprotein (AAG); orosomucoid; experiment: intrinsic Trp fluorescence quenching, excitation […] nm; assay type: binding; conditions: 297 K, pH 7.4, phosphate buffer, 1.0 μM protein; double-log
T1 construct: gene ORM1; native commercial plasma glycoprotein (Sigma-Aldrich); ORM1 is the main plasma form

[2] = target: T2, bovine serum albumin (BSA) (Bos taurus, UniProt P02769); experiment: as above; assay type: binding; conditions: 297 K, pH 7.4, phosphate buffer, 1.0 μM protein, no site marker; double-log
T2 construct: gene ALB; native commercial protein (Sigma-Aldrich), untagged mature serum albumin
T2 sequence (P02769 25-607): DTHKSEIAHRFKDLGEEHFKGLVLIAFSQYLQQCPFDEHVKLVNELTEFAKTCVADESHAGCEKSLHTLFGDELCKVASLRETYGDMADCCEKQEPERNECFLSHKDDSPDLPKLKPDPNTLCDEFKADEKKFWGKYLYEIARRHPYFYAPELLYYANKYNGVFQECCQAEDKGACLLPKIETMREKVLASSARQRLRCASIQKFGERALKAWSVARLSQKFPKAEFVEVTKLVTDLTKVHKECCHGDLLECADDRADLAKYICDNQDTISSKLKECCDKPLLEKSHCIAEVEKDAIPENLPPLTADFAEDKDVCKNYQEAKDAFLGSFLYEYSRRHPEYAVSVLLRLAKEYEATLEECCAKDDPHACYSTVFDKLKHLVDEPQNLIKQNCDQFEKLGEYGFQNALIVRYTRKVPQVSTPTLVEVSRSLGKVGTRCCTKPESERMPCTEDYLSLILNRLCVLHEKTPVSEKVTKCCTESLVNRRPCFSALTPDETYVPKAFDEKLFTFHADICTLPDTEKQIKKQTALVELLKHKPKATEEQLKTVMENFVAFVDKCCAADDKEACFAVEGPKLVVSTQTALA

Row | SMILES | Binding Parameters / Kb × 10^3 [L.mol^-1] [1] | Binding Parameters / Kb × 10^4 [L.mol^-1] [2]
1 | O=C1c2ccccc2C(=O)N1CN1CCN(C(c2ccccc2)c2ccccc2)CC1 [D, compound D] | 2.09 × 10^3 L·mol^−1 | 11.72 × 10^4 L·mol^−1
2 | O=C1c2ccccc2C(=O)N1CN1CCN(c2cccc(C(F)(F)F)c2)CC1 [C, compound C] | 1.48 × 10^3 L·mol^−1 | 43.61 × 10^4 L·mol^−1
3 | COc1ccccc1N1CCN(CN2C(=O)c3ccccc3C2=O)CC1 [B, compound B] | 1.86 × 10^3 L·mol^−1 | 2.01 × 10^4 L·mol^−1
4 | O=C1c2ccccc2C(=O)N1CN1CCN(c2ccccc2)CC1 [A, compound A] | 4.27 × 10^3 L·mol^−1 | 1.89 × 10^4 L·mol^−1
